Assay results published in article PMC10615177 (ACS infectious diseases, 2023).
“And” between values parts separate entries of the source, which are not always exact repeats. Identical values can stand only once. Like-named read-outs stand apart in the source and are kept apart here.

Tests used:
M. tuberculosis HN878 = M. tuberculosis HN878 growth inhibition; type: cell-based, Mycobacterium tuberculosis; conditions: for IC50: read-out: Mtb HN878 IC50, dose-response curves; for Mtb HN878 MIC: visual inspection
[1] = DSC of DMPC bilayers with inhibitor; type: physicochemical; conditions: for Tm (main transition) / ΔH / ΔT1/2: 10 wt % inhibitor, PBS pH 7.4, heating
[2] = test system: L. mexicana promastigotes; experiment: L. mexicana promastigote growth inhibition; type: cell-based, Leishmania mexicana; conditions: for IC50: read-out: L. mexicana IC50, promastigotes
E. coli = E. coli growth inhibition; type: cell-based, Escherichia coli; conditions: read-out: Ec IC50
M. smegmatis = M. smegmatis cell growth inhibition; type: cell-based, Mycobacterium smegmatis; conditions: read-out: Ms IC50; M. smegmatis
[3] = test system: M. abscessus rough variant; experiment: microbe, parasite or virus in culture; type: cell-based
[4] = test system: L. donovani promastigotes; experiment: L. donovani promastigote growth inhibition; type: cell-based, Leishmania donovani; conditions: read-out: L. donovani IC50; promastigotes
[5] = test system: M. abscessus smooth variant; experiment: microbe, parasite or virus in culture; type: cell-based
M. tuberculosis Erdman = M. tuberculosis Erdman growth inhibition; type: cell-based, Mycobacterium tuberculosis
[6] = test system: Plasmodium falciparum asexual blood stages; experiment: P. falciparum asexual blood stage; type: cell-based; conditions: read-out: PfABS IC50 (μM ± S.E.); asexual blood stages
[7] = test system: T. cruzi Dm28c epimastigotes; experiment: T. cruzi epimastigote growth inhibition; type: cell-based, Trypanosoma cruzi; conditions: read-out: T. cruzi IC50 (EPI); epimastigotes
[8] = test system: T. brucei bloodstream forms; experiment: T. brucei bloodstream form growth inhibition; type: cell-based, Trypanosoma brucei; conditions: read-out: T. brucei IC50; bloodstream forms
U2OS host cells = experiment: U2OS host cell growth inhibition; conditions: read-out: T. cruzi CC50 (U20S)
M. tuberculosis H37Rv = M. tuberculosis H37Rv growth inhibition; type: cell-based, Mycobacterium tuberculosis
[9] = DSC of DSPG bilayers with inhibitor; type: physicochemical; conditions: for Tm (main transition) / ΔH / ΔT1/2: 10 wt % inhibitor, PBS pH 7.4, heating; for Broadening of main transition peak ΔΤ1/2 compared to pure DSPG / Decrease of Tm compared to DSPG alone: heating
[10] = test system: HepG2 (human hepatocellular carcinoma) cells; experiment: HepG2 cell line viability
[11] = biological target: M. tuberculosis MmpL3 (MtMmpL3) (Mycobacterium tuberculosis, UniProt P9WJV5); experiment: Surface plasmon resonance binding to MmpL3; conditions: for koff: 1:1 Langmuir binding model
[12] = test system: T. cruzi Dm28c intracellular amastigotes; experiment: T. cruzi intracellular amastigote inhibition; type: cell-based, Trypanosoma cruzi; conditions: read-out: T. cruzi IC50 (PAR); intracellular amastigotes in U2OS host cells
Bacillus subtilis = experiment: B. subtilis growth inhibition; type: cell-based; conditions: read-out: Bs IC50
[13] = read-out: KD, 1:1 model, 1:1 binding model, from ratio of rate constants
[14] = read-out: KD, 2-state, two-state model, from rate constants

Chain of M. tuberculosis MmpL3 (MtMmpL3) (P9WJV5 whole entry): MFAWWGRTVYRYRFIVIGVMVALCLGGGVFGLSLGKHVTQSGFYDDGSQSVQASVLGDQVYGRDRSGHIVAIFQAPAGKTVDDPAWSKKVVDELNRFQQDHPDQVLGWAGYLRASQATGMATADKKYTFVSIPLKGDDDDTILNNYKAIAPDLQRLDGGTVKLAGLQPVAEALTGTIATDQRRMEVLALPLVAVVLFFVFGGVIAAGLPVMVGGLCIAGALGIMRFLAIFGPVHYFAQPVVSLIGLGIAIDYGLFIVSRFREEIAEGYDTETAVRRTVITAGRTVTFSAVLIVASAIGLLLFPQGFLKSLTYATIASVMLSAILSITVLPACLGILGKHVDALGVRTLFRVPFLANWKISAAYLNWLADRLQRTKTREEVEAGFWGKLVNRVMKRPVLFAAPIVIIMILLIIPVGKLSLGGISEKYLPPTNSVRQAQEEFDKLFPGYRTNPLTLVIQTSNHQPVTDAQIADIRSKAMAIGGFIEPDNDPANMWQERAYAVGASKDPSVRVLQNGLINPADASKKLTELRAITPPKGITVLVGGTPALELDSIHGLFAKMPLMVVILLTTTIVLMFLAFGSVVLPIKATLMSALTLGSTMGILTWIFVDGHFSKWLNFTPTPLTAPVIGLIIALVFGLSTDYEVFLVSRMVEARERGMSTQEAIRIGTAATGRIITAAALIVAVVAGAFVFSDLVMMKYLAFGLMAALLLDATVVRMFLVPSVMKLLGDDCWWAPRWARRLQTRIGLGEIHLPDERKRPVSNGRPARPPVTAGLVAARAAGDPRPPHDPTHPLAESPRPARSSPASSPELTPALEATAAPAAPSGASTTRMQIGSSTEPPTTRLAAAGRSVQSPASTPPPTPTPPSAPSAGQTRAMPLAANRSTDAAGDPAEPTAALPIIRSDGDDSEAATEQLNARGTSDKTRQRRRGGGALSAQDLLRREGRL

Row | Structure (SMILES) | IC50 (M. tuberculosis HN878) [nM] | Mtb HN878 MIC (M. tuberculosis HN878) [µM] | Tm (main transition) [1] [°C] | ΔH [1] [kcal/mol] | ΔT1/2 [1] [°C] | Decrease of Tm compared to DMPC without inhibitor ([1]; heating) | IC50 (E. coli) [nM] | IC50 (M. smegmatis) [nM] | Ma(R) MIC [3] [µM] | IC50 [4] [nM] | Ma(S) MIC [5] [µM] | Mtb Erdman MIC (M. tuberculosis Erdman) [µM] | IC50 [7] [nM] | IC50 [8] [nM] | CC50 (U2OS host cells) [nM] | Mtb H37Rv MIC (M. tuberculosis H37Rv) [µM] | Tm (main transition) [9] [°C] | ΔH [9] [kcal/mol] | ΔT1/2 [9] [°C] | Broadening of main transition peak ΔΤ1/2 compared to pure DSPG [9] | also measured
1 | CCCC1(NCCNCC=C(C)CCC=C(C)C)C2CC3CC(C2)CC1C3 (stereo not drawn) [Compound 8d, N-(3,7-dimethylocta-2,6-dien-1-yl)-N´-(2-propyladamantan-2-yl)ethane-1,2-diamine] | 2600 ± 1000 | 3 | 17.5 | 5.4 | 2.2 | ~6 °C | 7600 | 4300 ± 800 | 10 | 2000 ± 200 | 10 | 13 | 2100 ± 900 | 880 ± 200 | 1600 ± 100 | 13 | 50.0 | 11.5 | 1.1 | 0.2–1.6 °C | Less active than 8b/SQ109, L. mexicana [2]: ~ 4 fold; IC50 [2]: 1940 nM and 1900 nM; IC50 [6]: 0.53 ± 0.22 µM; Decrease of Tm compared to DSPG alone [9]: 3–4 °C; HepG2 % viability @ 20 μM [10]: 100%; koff [11]: 0.5403 s⁻¹; Kd [11, 13]: 91000 nM; Kd [11, 14]: 106000 nM; ka1 ([11]; two-state model): 7325 M⁻¹ s⁻¹; ka2 ([11]; two-state model): 0.00968 s⁻¹; kd1 ([11]; two-state model): 0.9488 s⁻¹; kd2 ([11]; two-state model): 0.04246 s⁻¹; IC50 [12]: 600 ± 500 nM
2 | CCCCC1(NCCNCC=C(C)CCC=C(C)C)C2CC3CC(C2)CC1C3 (stereo not drawn) [Compound 8e, N-(3,7-dimethylocta-2,6-dien-1-yl)-N´-(2-butyladamantan-2-yl)ethane-1,2-diamine] | 2500 ± 200 | 3 | 15.7 | 5.83 | 2.2 | ~7.8 °C | 7800 | 2500 | 6.2 | 4000 ± 400 | 6.2 | 9.7 | 2500 ± 1000 | 370 ± 20 | 1700 ± 1000 | 12.9 | 49.0 | 9.2 | 3.6 | 2.7 °C | Activity against M. abscessus higher than SQ109 [5]: 4–8 fold; MIC against M. abscessus [5]: 5.8 to 6.2 µM; IC50 [6]: 0.27 ± 0.04 µM; Decrease of Tm compared to DSPG alone [9]: ~ 5 °C; IC50 (Bacillus subtilis): 540 nM; HepG2 % viability @ 2 μM ([10]; 2 μM): 83%; HepG2 % viability @ 20 μM [10]: 50%; koff [11]: 0.3888 s⁻¹; Kd [11, 13]: 97000 nM; Kd [11, 14]: 108000 nM; ka1 ([11]; two-state model): 5151 M⁻¹ s⁻¹; ka2 ([11]; two-state model): 0.009897 s⁻¹; kd1 ([11]; two-state model): 0.7008 s⁻¹; kd2 ([11]; two-state model): 0.03763 s⁻¹; IC50 [12]: 840 ± 500 nM
3 | CC(C)=CCCC(C)=CCNCCNC1(Cc2ccccc2)C2CC3CC(C2)CC1C3 (stereo not drawn) [Compound 8g, N-(3,7-dimethylocta-2,6-dien-1-yl)-N´-(2-benzyladamantan-2-yl)ethane-1,2-diamine] | 2000 ± 500 | 1.6 | 16.6 | 5.16 | 10 | ~6.9 °C | 130000 | 6000 | 5.8 | 6100 ± 60 | 5.8 | 6.1 | 6600 ± 1000 | 850 ± 90 | 2000 ± 400 | 6.1 | 48.0 | 13.3 | 1.7 | 0.2–1.6 °C | Less activity than SQ109 against M. tuberculosis (M. tuberculosis HN878; MtbHN878, MtErdman and MtH37Rv): 2–4 fold; Broadening of main transition peak ΔΤ1/2 compared to pure DMPC ([1]; heating): 9.6 °C; Activity against M. abscessus higher than SQ109 [5]: 4–8 fold; MIC against M. abscessus [5]: 5.8 to 6.2 µM; Decrease of Tm compared to DSPG alone [9]: ~ 5 °C; IC50 (Bacillus subtilis): 590 nM; HepG2 % viability @ 20 μM [10]: 100%; koff [11]: 0.3999 s⁻¹; Kd [11, 13]: 69000 nM; Kd [11, 14]: 74000 nM; ka1 ([11]; two-state model): 6462 M⁻¹ s⁻¹; ka2 ([11]; two-state model): 0.006528 s⁻¹; kd1 ([11]; two-state model): 0.5715 s⁻¹; kd2 ([11]; two-state model): 0.03248 s⁻¹; IC50 [12]: 920 ± 60 nM
4 | CC(C)=CCCC(C)=CCNCCNC(C)(C)C12CC3CC(CC(C3)C1)C2 [Compound 12, N-(3,7-dimethylocta-2,6-dien-1-yl)-N´-(2-(adamantan-1-yl)propan-2-yl)ethane-1,2-diamine] | 3400 ± 600 | 3 | 19.8 | 4.25 | 4.1 | 3–4 °C | 8900 | 15000 ± 2000 | 12.9 | 2300 ± 100 | 12.9 | 13 | 2400 ± 700 | 1400 ± 30 | 1400 ± 200 | 13 | 49.8 | 13.3 | 2.4 | 0.2–1.6 °C | IC50 [2]: 4700 ± 200 nM; IC50 [6]: 0.77 ± 0.1 µM; Decrease of Tm compared to DSPG alone [9]: 3–4 °C; HepG2 % viability @ 20 μM [10]: 100%; koff [11]: 0.6646 s⁻¹; Kd [11, 13]: 106000 nM; Kd [11, 14]: 120000 nM; ka1 ([11]; two-state model): 7245 M⁻¹ s⁻¹; ka2 ([11]; two-state model): 0.007539 s⁻¹; kd1 ([11]; two-state model): 1.05 s⁻¹; kd2 ([11]; two-state model): 0.03558 s⁻¹; IC50 [12]: 560 ± 900 nM
